Results as given in US7868188B2, “5-heteroaryl thiazoles and their use as PI3K inhibitors” (AstraZeneca AB, priority 2004, dated 2011).
pIC50: −log10 of the molar value. Structures can show the parent of a compound that is named as a salt.

Experiments:
[1] = tested on: phosphorylation of Serine 473 in Akt (MDA-MB-468 cells); assay: Test (c) In Vitro phospho-Ser473 Akt Assay; format: cell-based; conditions: Homo sapiens, read-out: IC50 versus Serine 473 in Akt
Protocol: This assay determines the ability of test compounds to inhibit phosphorylation of Serine 473 in Akt as assessed using Acumen Explorer technology (Acumen Bioscience Limited), a plate reader that can be used to rapidly quantitate features of images generated by laser-scanning.
A MDA-MB-468 human breast adenocarcinoma cell line (LGC Promochem, Teddington, Middlesex, UK, Catalogue No. HTB-132) was routinely maintained at 37° C. with 5% CO2 up to a confluency of 70-90% in DMEM containing 10% heat-inactivated FCS and 1% L-glutamine.
For the assay, the cells were detached from the culture flask using ‘Accutase’ (Innovative Cell Technologies Inc., San Diego, Calif., USA; Catalogue No. AT104) using standard tissue culture methods and resuspended in media to give 1.7×10^5 cells per ml. Aliquots (90 μl) were seeded into each of the inner 60 wells of a black Packard 96 well plate (PerkinElmer, Boston, Mass., USA; Catalogue No. 6005182) to give a density of ˜15000 cells per well. Aliquots (90 μl) of culture media were placed in the outer wells to prevent edge effects. The cells were incubated overnight at 37° C. with 5% CO2 to allow them to adhere.
On day 2, the cells were treated with test compounds and incubated for 2 hours at 37° C. with 5% CO2. Test compounds were prepared as 10 mM stock solutions in DMSO and serially diluted as required with growth media to give a range of concentrations that were 10-fold the required final test concentrations. Aliquots (10 μl) of each compound dilution were placed in a well (in triplicate) to give the final required concentrations. As a minimum response control, each plate contained wells having a final concentration of 100 μM LY294002 (Calbiochem, Beeston, UK, Catalogue No. 440202). As a maximum response control, wells contained 1% DMSO instead of test compound. Following incubation, the contents of the plates were […] by treatment with a 1.6% aqueous formaldehyde solution (Sigma, Poole, Dorset, UK, Catalogue No. F1635) at room temperature for 1 hour.
All subsequent aspiration and wash steps were carried out using a Tecan 96 well late washer (aspiration speed 10 mm/sec). The fixing solution was removed and the contents of the plates were washed with phosphate-buffered saline (PBS; 50 μl; Gibco, Catalogue No. 10010015). The contents of the plates were treated for 10 minutes at room temperature with an aliquot (50 μl) of a cell permeabilisation buffer consisting of a mixture of PBS and 0.5% Tween-20. […] An aliquot of PBS (50 μl) was added to each well and the plates were sealed with black plate sealers and the fluorescence signal was detected and analysed.
Fluorescence dose response data obtained with each compound were analysed and the degree of inhibition of Serine 473 in Akt was expressed as an IC50 value.

p110α Type Ia human PI3K = target: T1, p110α Type Ia human PI3K (Homo sapiens, UniProt P42336); assay: Test (a) In Vitro PI3K Enzyme Assay (AlphaScreen); format: biochemical; conditions: read-out: IC50 versus p110α PI3K
T1 construct: full length DNA of each of the p110α, p110β and p110δ Type Ia human PI3K p110 isoforms; 6-His; made in house; host or cells: baculovirus expression system (Sf9 is named only for PI3Kγ)
T1 sequence (P42336 whole entry, canonical isoform): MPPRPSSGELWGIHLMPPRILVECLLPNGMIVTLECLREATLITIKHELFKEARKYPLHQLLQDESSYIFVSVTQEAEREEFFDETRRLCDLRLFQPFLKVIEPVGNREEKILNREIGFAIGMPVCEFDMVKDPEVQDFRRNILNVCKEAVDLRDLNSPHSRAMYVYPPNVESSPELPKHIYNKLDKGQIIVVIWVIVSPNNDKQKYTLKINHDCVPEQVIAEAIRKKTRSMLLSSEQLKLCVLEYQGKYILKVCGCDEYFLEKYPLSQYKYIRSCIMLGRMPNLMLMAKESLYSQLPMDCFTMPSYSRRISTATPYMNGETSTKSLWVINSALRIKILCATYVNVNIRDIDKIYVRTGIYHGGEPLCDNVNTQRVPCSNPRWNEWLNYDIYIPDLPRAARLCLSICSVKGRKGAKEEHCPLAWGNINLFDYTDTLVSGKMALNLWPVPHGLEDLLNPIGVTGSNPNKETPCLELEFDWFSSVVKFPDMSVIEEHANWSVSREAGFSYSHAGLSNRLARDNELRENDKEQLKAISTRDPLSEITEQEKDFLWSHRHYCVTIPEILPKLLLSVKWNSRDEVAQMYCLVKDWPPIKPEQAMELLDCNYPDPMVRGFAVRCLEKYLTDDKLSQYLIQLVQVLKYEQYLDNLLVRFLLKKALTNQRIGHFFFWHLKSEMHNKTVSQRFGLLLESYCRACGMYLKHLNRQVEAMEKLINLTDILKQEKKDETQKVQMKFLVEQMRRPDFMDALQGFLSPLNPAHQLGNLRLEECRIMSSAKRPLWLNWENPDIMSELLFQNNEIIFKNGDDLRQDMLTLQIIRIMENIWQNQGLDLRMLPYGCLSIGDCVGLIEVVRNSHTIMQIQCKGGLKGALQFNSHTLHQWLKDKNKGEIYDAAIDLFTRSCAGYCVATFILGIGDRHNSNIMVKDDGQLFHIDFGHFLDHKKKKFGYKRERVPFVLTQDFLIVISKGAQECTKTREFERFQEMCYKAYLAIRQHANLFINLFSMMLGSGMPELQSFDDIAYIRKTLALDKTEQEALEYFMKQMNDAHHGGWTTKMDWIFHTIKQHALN
T1 sequence (P27986 whole entry partner, canonical isoform): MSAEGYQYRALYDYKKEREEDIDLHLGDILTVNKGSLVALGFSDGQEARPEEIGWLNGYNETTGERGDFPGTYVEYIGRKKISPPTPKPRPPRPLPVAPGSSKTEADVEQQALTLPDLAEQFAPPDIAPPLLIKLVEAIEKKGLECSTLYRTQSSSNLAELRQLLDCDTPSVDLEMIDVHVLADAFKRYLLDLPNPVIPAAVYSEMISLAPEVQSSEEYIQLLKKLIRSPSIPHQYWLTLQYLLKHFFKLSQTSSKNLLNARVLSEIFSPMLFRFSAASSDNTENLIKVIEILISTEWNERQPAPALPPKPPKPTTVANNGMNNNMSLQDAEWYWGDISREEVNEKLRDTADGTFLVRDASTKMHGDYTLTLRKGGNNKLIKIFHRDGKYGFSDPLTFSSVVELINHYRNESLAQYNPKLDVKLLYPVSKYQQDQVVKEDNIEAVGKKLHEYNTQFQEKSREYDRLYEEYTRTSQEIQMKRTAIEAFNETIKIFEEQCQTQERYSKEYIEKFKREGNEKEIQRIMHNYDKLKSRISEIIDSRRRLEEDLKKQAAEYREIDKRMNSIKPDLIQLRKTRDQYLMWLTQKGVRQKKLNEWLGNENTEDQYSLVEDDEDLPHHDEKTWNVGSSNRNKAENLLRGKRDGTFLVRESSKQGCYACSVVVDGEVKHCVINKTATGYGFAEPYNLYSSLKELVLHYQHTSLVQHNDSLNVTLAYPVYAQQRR
Source text: The assay used AlphaScreen technology (Gray et al., Analytical Biochemistry, 2003, 313: 234-245) to determine the ability of test compounds to inhibit phosphorylation by recombinant Type I PI3K enzymes of the lipid PI(4,5)P2.
DNA fragments encoding human PI3K catalytic and regulatory subunits were isolated from cDNA libraries using standard molecular biology and PCR cloning techniques. The selected DNA fragments were used to generate baculovirus expression vectors. In particular, full length DNA of each of the p110α, p110β and p110δ Type Ia human PI3K p110 isoforms (EMBL Accession Nos. HSU79143, S67334, Y10055 for p110α, p110β and p110δ respectively) were sub-cloned into a pDEST10 vector (Invitrogen Limited, Fountain Drive, Paisley, UK). The vector is a Gateway-adapted version of Fastbac1 containing a 6-His epitope tag. A truncated form of Type Ib human PI3K p110γ isoform corresponding to amino acid residues 144-1102 (EMBL Accession No. X8336A) and the full length human p85α regulatory subunit (EMBL Accession No. HSP13KIN) were also sub-cloned into pFastBac1 vector containing a 6-His epitope tag. The Type Ia p110 constructs were co-expressed with the p85α regulatory subunit. Following expression in the baculovirus system using standard baculovirus expression techniques, expressed proteins were purified using the His epitope tag using standard purification techniques.
DNA corresponding to amino acids 263 to 380 of human general receptor for phosphoinositides (Grp1) PH domain was isolated from a cDNA library using standard molecular biology and PCR cloning techniques. The resultant DNA fragment was sub-cloned into a pGEX 4T1 E. coli expression vector containing a GST epitope tag (Amersham Pharmacia Biotech, Rainham, Essex, UK) as described by Gray et al., Analytical Biochemistry, 2003, 313: 234-245). The GST-tagged Grp1 PH domain was expressed and purified using standard techniques.
Test compounds were prepared as […] stock solutions in DMSO and diluted into water as required to give a range of final assay concentrations. Aliquots (2 μl) of each compound dilution were placed into a well of a Greiner 384-well low volume (LV) white polystyrene plate (Greiner Bio-one, Brunel Way, Stonehouse, Gloucestershire, UK Catalogue No. 784075). […]
Biotinylated-DiC8-PI(3,4,5)P3 (50 nM; Cell Signals Inc., Catalogue No. 107), recombinant purified GST-Grp1 PH protein (2.5 nM) and AlphaScreen Anti-GST donor and acceptor beads (100 ng; Packard Bioscience Limited, Station Road, Pangbourne, Berkshire, UK, Catalogue No. 6760603M) were added and the assay plates were left for about 5 to 20 hours at room temperature in the dark. The resultant signals arising from laser light excitation at 680 nm were read using a Packard AlphaQuest instrument. […]

SMILES: CC(=O)Nc1nc(C)c(-c2cnc(Cl)c(NS(=O)(=O)c3ccccc3)c2)s1 [Example 13, N-{5-[6-Chloro-5-(phenylsulfonylamino)pyridin-3-yl]-4-methyl-1,3-thiazol-2-yl}acetamide trifluoroacetate]
- pIC50 [1]: ~7.70
- pIC50 (p110α Type Ia human PI3K): ~8.00
